From US5374641A, “N-(3-pyridylalkyl)sulfonamide compounds which have useful pharmaceutical activity” (Terumo Kabushiki Kaisha, priority 1991, dated 1994) come the findings set out here.

Assay [1] concerns platelet aggregation caused by U-46619. In words: Test Example 1: Platelet aggregation inhibiting activity (human PRP, U-46619). It is filed as cell-based. Conditions: for IC50: Platelet, 320 nM U-46619, 37° C., read-out: Inhibitory effect against platelet aggregation caused by U-46619 (IC50); for platelet aggregation inhibiting activity (in words): U-46619. As to the method: (§1) A blood sample was collected from human fore arm using a syringe containing 3.8% sodium citrate solution (1/10 volume of the blood to be collected) and centrifuged to obtain platelet rich plasma (PRP; 3 ×10^5 platelets/μ1).
(§2) Platelet aggregation was measured using an aggregometer (Hematracer VI, Niko Bioscience Co., Ltd.) by putting 200 µl of the thus prepared PRP and 23.75 µl of physiological saline in a cuvette, setting the cuvette into the aggregometer and incubating the contents at 37° C. for 2 minutes, adding 1.25 μ1 dimethyl sulfoxide (DMSO) solution of each of the N-(3-pyridylalkyl)sulfonamide derivatives obtained in Examples 1, 3, 4, 6 and 8 and incubating for 3 minutes, and then adding U-46619 (Cayman Chemical Co., Inc.) which is a stable PGG2/ H2 derivative having a strong platelet aggregation causing activity.
In this instance, the term "IC50 "as used herein means concentration of the N-(3-pyridylalkyl)sulfonamide derivative of the present invention required to inhibit 50% of the platelet agglutination when platelet aggregation without introducing the inventive derivative was defined as 100%.

For assay [2], the target named is T1, thromboxane synthetase (Homo sapiens, UniProt P24557).
T1 sequence (P24557 1-533): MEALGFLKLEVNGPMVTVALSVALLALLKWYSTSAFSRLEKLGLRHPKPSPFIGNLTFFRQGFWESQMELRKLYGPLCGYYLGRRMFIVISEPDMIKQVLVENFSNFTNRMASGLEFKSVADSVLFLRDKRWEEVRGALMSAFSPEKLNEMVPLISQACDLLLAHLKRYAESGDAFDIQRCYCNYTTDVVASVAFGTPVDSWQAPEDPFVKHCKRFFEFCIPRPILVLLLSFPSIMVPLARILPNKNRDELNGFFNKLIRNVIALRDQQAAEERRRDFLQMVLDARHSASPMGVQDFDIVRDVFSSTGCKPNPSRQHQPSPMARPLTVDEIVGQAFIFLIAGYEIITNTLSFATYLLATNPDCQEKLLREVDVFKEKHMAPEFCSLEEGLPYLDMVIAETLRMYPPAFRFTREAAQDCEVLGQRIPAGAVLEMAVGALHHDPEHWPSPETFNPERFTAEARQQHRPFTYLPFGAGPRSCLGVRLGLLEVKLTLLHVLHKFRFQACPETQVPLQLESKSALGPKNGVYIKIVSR
In words: Test Example 2: Thromboxane synthetase inhibiting activity (human PRP, thrombin, RIA). It counts as cell-based. As to conditions: for IC50: 20 U/ml thrombin, RIA, read-out: Inhibition of thromboxane A2 synthesis (IC50). Here is the method:
as §1
(§3) A 200 μ1 portion of the thus prepared PRP and 23.75 µl of physiological saline were put in a cuvette, the cuvette was set into the aforementioned aggregometer and the contents in the cuvette were incubated at 37° C. for 2 minutes. Thereafter, 1.25 μ1 dimethyl sulfoxide (DMSO) solution of each of the N-(3-pyridylalkyl)sulfonamide derivatives obtained in Examples 1, 3 and 7 was put in the cuvette and incubated for 3 minutes, followed by the addition of 20 U/ml solution of thrombin to cause platelet aggregation. A portion of the supernatant after aggregation reaction was mixed with diethyl ether/methanol/0.2M citric acid (30:4:1 ), and the thus formed thromboxane A2 was extracted and its quantity was analyzed by RIA using a kit of Amersham.

Assay [3] deals with platelet aggregation, induced by U-46619. Nature of the assay: Test Examples 4: Platelet aggregation inhibiting activity (guinea pig PRP, U-46619). It is filed as cell-based. As to conditions: Cavia porcellus, 320 nM U-46619, 37° C., read-out: Platelet aggregation activity IC50 (concentration of 50% inhibition of platelet aggregation, induced by U-46619). As to the method: A blood sample was taken from carotid artery of a guinea pig using a syringe containing 3.8% sodium citrate solution (1/10 volume of the blood to be collected). The blood was centrifuged to obtain platelet riched plasma (PRP: number of platelets, 3×10^5 /μ1).
Two hundred microliters of the PRP and 23.75 µl of physiological saline were placed in a cuvette, which was then set in an aggregometer, followed by heating at 37° C. for two minutes, and then followed by addition of 1.25 µl of the solution of an N-(3-pyridylalkyl)sulfonamide derivative of the present invention in ethanol, for 3-min incubation. Then, U-46619, one of stable PGG2 /H2 derivatives, having strong action inducing platelet aggregation, was added, so that platelet aggregation was measured by an aggregometer [Hematracer VI: manufactured by NIKO Bioscience, K.K.].

The target in assay [4] is T1, thromboxane synthetase. Nature of the assay: Test Example 5: Thromboxane synthetase inhibiting activity (human platelet microsomal fraction, RIA). It is filed as biochemical. Conditions: PGH2, room temperature, 60 seconds, read-out: Inhibition of thromboxane synthetase IC50. As to the method:
Arachidonic acid (10 nM) was added to 250 μg of microsome of sheep seminal vesicle gland, commercially available from Hilran Biochemical, Co. Ltd., Israel, Lot SM36, which was then reacted at room temperature for 90 seconds to prepare PGH2.
Commercially available human platelet microsomal fraction (200 μg) as a source for thromboxane synthetase was mixed with the PGH2 solution prepared in the same manner as for samples, and reacted together at room temperature for 60 seconds. Diethyl ether/methanol/0.2M citric acid (30:4:1) was added to extract thromboxane A2 generated and its quantity was then analyzed by RIA using a kit manufactured by NEN, Co. LTd.

For assay [5], the system named is platelet aggregation caused by U-46619. In words: Test Examples 6: Platelet aggregation inhibiting activity (human PRP, U-46619). It is filed as cell-based. Conditions: for IC50: Platelet, 320 nM U-46619, 37° C., read-out: Inhibitory effect against platelet aggregation caused by U-46619 (IC50); for platelet aggregation inhibiting activity (in words): U-46619. As to the method:
A blood sample was collected from human fore arm using a syringe containing 3.8% sodium citrate solution (1/10 volume of the blood to be collected) and centrifuged to obtain platelet rich plasma (PRP; 3×10^5 platelets/μl).
as §2, with “200 μof” for “200 µl of”, “23.75 μl” for “23.75 µl”, “1.25 μl” for “1.25 μ1”, “Examples 35, 36, 37” for “Examples 1, 3, 4, 6”, “and 42” for “and 8”, “stable PGG2 /H2” for “stable PGG2/ H2”
In this instance, the term "IC50 " as used herein means concentration of the N-(3-pyridylalkyl)sulfonamide derivative of the present invention required to inhibit 50% of the platelet aggregation when platelet aggregation without introducing the inventive derivative was defined as 100%.

Assay [6] deals with T1, thromboxane synthetase. In words: Test Example 7: Thromboxane synthetase inhibiting activity (human PRP, thrombin, RIA). It is filed as cell-based. Conditions: for IC50: 20 U/ml thrombin, RIA, read-out: Inhibition of thromboxane A2 synthesis (IC50); for thromboxane synthetase inhibiting activity (in words): thrombin. Here is the method:
A blood sample was collected from human fore arm using a syringe containing 3.8% sodium citrate solution (1/10 volume of the blood to be collected) and centrifuged to obtain platelet rich plasma (PRP; 3×10^5 platelets/μl ).
as §3, with “200 μl” for “200 μ1”, “23.75 μl” for “23.75 µl”, “Examples 36, 37, 38” for “Examples 1, 3”, “and 40” for “and 7”, “acid (30:4:1),” for “acid (30:4:1 ),”

The structures appear in SMILES notation.

Turning to `CCOC(=O)COc1ccc(C(NS(=O)(=O)c2ccc(Cl)cc2)c2cccnc2)cc1` (stereo not shown) [Example 1, ethyl 4-[4-chlorobenzenesulfonamide-(3-pyridyl)methyl]phenyloxyacetate], in assay [1], the IC50 was found to be 96 µM and the “platelet aggregation inhibiting activity (in words)” value is given as “markedly high platelet aggregation inhibiting activity”. Moreover, at thromboxane synthetase [2], the IC50 was determined as 0.037 µM. Further, the “thromboxane synthetase inhibiting activity (in words)” value at thromboxane synthetase [2] (thrombin) is reported as “excellent thromboxane synthetase inhibiting activity”.
For `O=C(O)COc1ccc(C(CCNS(=O)(=O)c2ccc(Cl)cc2)Cc2cccnc2)cc1` (stereo not shown) [Example 8, 4-[1-(4-chlorobenzenesulfonamido)-4-(3-pyridyl)-3-butyl]phenyloxyacetic acid], the IC50 on thromboxane synthetase [2] worked out at 4.3 µM.
With `CCOC(=O)COc1ccc(C(CCNS(=O)(=O)c2ccc(Cl)cc2)Cc2cccnc2)cc1` (stereo not shown) [Example 9], in assay [1], the IC50 was determined as 5.1 µM and the “platelet aggregation inhibiting activity (in words)” value is given as “markedly high platelet aggregation inhibiting activity”.
`Cc1ccc(S(=O)(=O)NC(Cc2ccc(OCC(=O)O)cc2)c2cccnc2)cc1` (stereo not shown) [Example 11]: the IC50 in assay [3] stood at 1.9 µM; at thromboxane synthetase [4], 21 µM.
Consider `O=C(O)COc1ccc(CC(NS(=O)(=O)c2ccccc2)c2cccnc2)cc1` (stereo not shown) [Example 13], for which the IC50 in assay [3] stood at 0.84 µM; on thromboxane synthetase [4], 8.9 µM.
As to `O=C(O)/C=C/c1ccc(CC(NS(=O)(=O)c2ccc(Cl)cc2)c2cccnc2)cc1` (stereo not shown) [Example 15, 4-[2-(4-chlorobenzenesulfonamido]-2-(3-pyridyl)ethyl]cinnamic acid], the IC50 was found to be 1.1 µM in assay [3] and 36 µM at thromboxane synthetase [4].
The like results for `O=C(O)CCc1ccc(CC(NS(=O)(=O)c2ccc(Cl)cc2)c2cccnc2)cc1` (stereo not shown) [Example 17, 3-{4-[2-(4-chlorobenzenesulfonamido)-2(3-pyridyl)ethyl]phenyl}propionic acid] were, in that order, 1.8 µM and 30 µM.
With `O=C(O)c1ccc(CC(NS(=O)(=O)c2ccc(Cl)cc2)c2cccnc2)cc1` (stereo not shown) [Example 19], the IC50 in assay [3] worked out at 4.2 µM; on thromboxane synthetase [4], 1 µM.
For `O=C(O)Cc1ccc(CC(NS(=O)(=O)c2ccc(Cl)cc2)c2cccnc2)cc1` (stereo not shown) [Example 21, 4-[2-(4-chlorobenzenesulfonamido)-2-(3-pyridyl)ethyl]phenylacetic acid] the same measures were 0.68 µM and 2.2 µM.
The like results for `O=C(O)COc1ccc(C(CNS(=O)(=O)c2ccc(Cl)cc2)Cc2cccnc2)cc1` (stereo not shown) [Example 23, 4-[{1-(4-chlorobenzenesulfonamido)-3-(3-pyridyl)}propan-2-yl]phenoxyaceticacid] were, in that order, 0.36 µM and 5.1 µM.
With `CCOC(=O)Oc1ccc(C(CNS(=O)(=O)c2ccc(Cl)cc2)Cc2cccnc2)cc1` (stereo not shown) [Example 24], the IC50 came to 40 µM in assay [3] and 2.2 µM at thromboxane synthetase [4].
The like results for `O=C(O)COc1ccc(CC(CNS(=O)(=O)c2ccc(Cl)cc2)c2cccnc2)cc1` (stereo not shown) [Example 26] were, in that order, 60 µM and 2.4 µM.
For `CCOC(=O)Oc1ccc(CC(CNS(=O)(=O)c2ccc(Cl)cc2)c2cccnc2)cc1` (stereo not shown) [Example 27], the values for the IC50 (in assay [3]; at thromboxane synthetase [4]) were 52 µM and 28 µM, respectively.
The like results for `O=C(O)c1ccc(CCC(NS(=O)(=O)c2ccc(Cl)cc2)c2cccnc2)cc1` (stereo not shown) [Example 29, 4-[3-(4-chlorobenzenesulfonamido)-3-(3-pyridyl)propyl]benzoic acid] were, in that order, 2 µM and 1.5 µM.
The like results for `O=C(O)COc1ccc(CCC(NS(=O)(=O)c2ccc(Cl)cc2)c2cccnc2)cc1` (stereo not shown) [Example 31, 4-[3-(4-chlorobenzenesulfonamido)-3-(3-pyridyl)propyl]phenoxyacetic acid] were, in that order, 15 µM and 0.94 µM.
For `O=C(O)COc1ccc(CC(CCNS(=O)(=O)c2ccc(Cl)cc2)c2cccnc2)cc1` (stereo not shown) [Example 33] the same measures were 17 µM and 0.03 µM.
For `C/C(=C\c1ccc(CC(NS(=O)(=O)c2ccc(Cl)cc2)c2cccnc2)cc1)C(=O)O` (stereo not shown) [Example 35], in assay [5], the IC50 was 48 µM and the “platelet aggregation inhibiting activity (in words)” value is “markedly high platelet aggregation inhibiting activity”.
Take `C/C(=C\c1ccc(C(CNS(=O)(=O)c2ccc(Cl)cc2)Cc2cccnc2)cc1)C(=O)O` (stereo not drawn) [Example 36, 4-[1-(4-chlorobenzenesulfonamido)-3-(3-pyridyl)-2-propyl]-α-methylcinnamic acid]: in assay [5], the IC50 is 71 µM and the “platelet aggregation inhibiting activity (in words)” value is recorded as “markedly high platelet aggregation inhibiting activity”. Moreover, at thromboxane synthetase [6], the IC50 was 8.3 µM and the “thromboxane synthetase inhibiting activity (in words)” value was “excellent thromboxane synthetase inhibiting activity”.
For the molecule `CCOC(=O)/C(C)=C/c1ccc(C(CNS(=O)(=O)c2ccc(Cl)cc2)c2cccnc2)cc1` (stereo not drawn) [Example 40, ethyl 4-[2-(4-chlorobenzenesulfonamido)-1-(3-pyridyl)ethyl]-α-methylcinnamate], on thromboxane synthetase [6], the IC50 turned out to be 1.5 µM and the “thromboxane synthetase inhibiting activity (in words)” value was “excellent thromboxane synthetase inhibiting activity”.
For `C/C(=C\c1ccc(C(CCNS(=O)(=O)c2ccc(Cl)cc2)c2cccnc2)n1C)C(=O)O` (stereo not shown) [Example 42], in assay [5], the IC50 amounted to 43 µM and the “platelet aggregation inhibiting activity (in words)” value is recorded as “markedly high platelet aggregation inhibiting activity”.
